ChEMBL document CHEMBL1255475, “Mutant prevention concentrations of four carbapenems against gram-negative rods” (2010)
≈ marks a conversion by molar mass, not a printed value.

Key:
Acinetobacter baumannii [1] = assay: Antibacterial activity against Acinetobacter baumannii A897 after 24 hrs by agar dilution method; type: functional; conditions: A897, 24 h
Acinetobacter baumannii [2] = assay: Antibacterial activity against Acinetobacter baumannii A929 after 24 hrs by agar dilution method; type: functional; conditions: A929, 24 h
Acinetobacter baumannii [3] = assay: Antibacterial activity against Acinetobacter baumannii A890 after 24 hrs by agar dilution method; type: functional; conditions: A890, 24 h
Acinetobacter baumannii [4] = assay: Antibacterial activity against Acinetobacter baumannii A891 after 24 hrs by agar dilution method; type: functional; conditions: A891, 24 h
Acinetobacter baumannii [5] = assay: Antibacterial activity against Acinetobacter baumannii A901 after 24 hrs by agar dilution method; type: functional; conditions: A901, 24 h
Acinetobacter baumannii [6] = assay: Antibacterial activity against Acinetobacter baumannii A903 after 24 hrs by agar dilution method; type: functional; conditions: A903, 24 h
Escherichia coli [7] = assay: Antibacterial activity against beta-lactamase-negative Escherichia coli E344 after 24 hrs by agar dilution method; conditions: E344, 24 h
Escherichia coli [8] = assay: Antibacterial activity against beta-lactamase-negative Escherichia coli E350 after 24 hrs by agar dilution method; conditions: E350, 24 h
Escherichia coli [9] = assay: Antibacterial activity against beta-lactamase-negative Escherichia coli E409 after 24 hrs by agar dilution method; conditions: E409, 24 h
Escherichia coli [10] = assay: Antibacterial activity against beta-lactamase-positive ESBL-positive Escherichia coli E458 after 24 hrs by agar dilution method; conditions: E458, 24 h
Escherichia coli [11] = assay: Antibacterial activity against beta-lactamase-positive ESBL-negative Escherichia coli E412 after 24 hrs by agar dilution method; conditions: E412, 24 h
Escherichia coli [12] = assay: Antibacterial activity against beta-lactamase-positive ESBL-negative Escherichia coli E415 after 24 hrs by agar dilution method; conditions: E415, 24 h
Escherichia coli [13] = assay: Antibacterial activity against beta-lactamase-positive ESBL-positive Escherichia coli E450 after 24 hrs by agar dilution method; conditions: E450, 24 h
Klebsiella pneumoniae [14] = assay: Antibacterial activity against beta-lactamase-negative Klebsiella pneumoniae E359 after 24 hrs by agar dilution method; type: functional; conditions: E359, 24 h
Klebsiella pneumoniae [15] = assay: Antibacterial activity against beta-lactamase-negative Klebsiella pneumoniae E419 after 24 hrs by agar dilution method; type: functional; conditions: E419, 24 h
Klebsiella pneumoniae [16] = assay: Antibacterial activity against beta-lactamase-negative Klebsiella pneumoniae E362 after 24 hrs by agar dilution method; type: functional; conditions: E362, 24 h
Klebsiella pneumoniae [17] = assay: Antibacterial activity against beta-lactamase-negative Klebsiella pneumoniae E418 after 24 hrs by agar dilution method; type: functional; conditions: E418, 24 h
Klebsiella pneumoniae [18] = assay: Antibacterial activity against beta-lactamase-positive ESBL-negative Klebsiella pneumoniae E480 after 24 hrs by agar dilution method; type: functional; conditions: E480, 24 h
Klebsiella pneumoniae [19] = assay: Antibacterial activity against beta-lactamase-positive ESBL-negative Klebsiella pneumoniae E509 after 24 hrs by agar dilution method; type: functional; conditions: E509, 24 h
Klebsiella pneumoniae [20] = assay: Antibacterial activity against beta-lactamase-positive ESBL-negative Klebsiella pneumoniae E474 after 24 hrs by agar dilution method; type: functional; conditions: E474, 24 h
Klebsiella pneumoniae [21] = assay: Antibacterial activity against beta-lactamase-positive ESBL-positive Klebsiella pneumoniae E475 after 24 hrs by agar dilution method; type: functional; conditions: E475, 24 h
Klebsiella pneumoniae [22] = assay: Antibacterial activity against beta-lactamase-positive ESBL-negative Klebsiella pneumoniae E481 after 24 hrs by agar dilution method; type: functional; conditions: E481, 24 h
Pseudomonas aeruginosa [23] = assay: Antibacterial activity against Pseudomonas aeruginosa P332 after 24 hrs by agar dilution method; conditions: P332, 24 h
Pseudomonas aeruginosa [24] = assay: Antibacterial activity against Pseudomonas aeruginosa P319 after 24 hrs by agar dilution method; type: functional; conditions: P319, 24 h
Pseudomonas aeruginosa [25] = assay: Antibacterial activity against Pseudomonas aeruginosa P323 after 24 hrs by agar dilution method; conditions: P323, 24 h
Pseudomonas aeruginosa [26] = assay: Antibacterial activity against Pseudomonas aeruginosa P337 after 24 hrs by agar dilution method; conditions: P337, 24 h
Pseudomonas aeruginosa [27] = assay: Antibacterial activity against Pseudomonas aeruginosa P328 after 24 hrs by agar dilution method; type: functional; conditions: P328, 24 h
Pseudomonas aeruginosa [28] = assay: Antibacterial activity against Pseudomonas aeruginosa P340 after 24 hrs by agar dilution method; conditions: P340, 24 h
Pseudomonas aeruginosa [29] = assay: Antibacterial activity against Pseudomonas aeruginosa P370 after 24 hrs by agar dilution method; conditions: P370, 24 h
Acinetobacter baumannii [30] = assay: Antibacterial activity against Acinetobacter baumannii A910 after 24 hrs by agar dilution method; type: functional; conditions: A910, 24 h
Acinetobacter baumannii [31] = assay: Antibacterial activity against Acinetobacter baumannii A884 after 24 hrs by agar dilution method; type: functional; conditions: A884, 24 h
Acinetobacter baumannii [32] = assay: Antibacterial activity against Acinetobacter baumannii A896 after 24 hrs by agar dilution method; type: functional; conditions: A896, 24 h
Pseudomonas aeruginosa [33] = assay: Ratio of mutant prevention concentration to minimum Inhibitory concentration for Pseudomonas aeruginosa P319; type: functional
Pseudomonas aeruginosa [34] = assay: Ratio of mutant prevention concentration to minimum Inhibitory concentration for Pseudomonas aeruginosa P320; type: functional
Pseudomonas aeruginosa [35] = assay: Ratio of mutant prevention concentration to minimum Inhibitory concentration for Pseudomonas aeruginosa P327; type: functional
Pseudomonas aeruginosa [36] = assay: Ratio of mutant prevention concentration to minimum Inhibitory concentration for Pseudomonas aeruginosa P323; type: functional
Pseudomonas aeruginosa [37] = assay: Ratio of mutant prevention concentration to minimum Inhibitory concentration for Pseudomonas aeruginosa P337; type: functional
Pseudomonas aeruginosa [38] = assay: Ratio of mutant prevention concentration to minimum Inhibitory concentration for Pseudomonas aeruginosa P338; type: functional
Pseudomonas aeruginosa [39] = assay: Ratio of mutant prevention concentration to minimum Inhibitory concentration for Pseudomonas aeruginosa P328; type: functional
Pseudomonas aeruginosa [40] = assay: Ratio of mutant prevention concentration to minimum Inhibitory concentration for Pseudomonas aeruginosa P363; type: functional
Pseudomonas aeruginosa [41] = assay: Ratio of mutant prevention concentration to minimum Inhibitory concentration for Pseudomonas aeruginosa P370; type: functional
Pseudomonas aeruginosa [42] = assay: Ratio of mutant prevention concentration to minimum Inhibitory concentration for Pseudomonas aeruginosa P376; type: functional
Acinetobacter baumannii [43] = assay: Ratio of mutant prevention concentration to minimum Inhibitory concentration for Acinetobacter baumannii A848; type: functional
Acinetobacter baumannii [44] = assay: Ratio of mutant prevention concentration to minimum Inhibitory concentration for Acinetobacter baumannii A864; type: functional
Acinetobacter baumannii [45] = assay: Ratio of mutant prevention concentration to minimum Inhibitory concentration for Acinetobacter baumannii A851; type: functional
Acinetobacter baumannii [46] = assay: Ratio of mutant prevention concentration to minimum Inhibitory concentration for Acinetobacter baumannii A912; type: functional
Acinetobacter baumannii [47] = assay: Ratio of mutant prevention concentration to minimum Inhibitory concentration for Acinetobacter baumannii A849; type: functional
Acinetobacter baumannii [48] = assay: Ratio of mutant prevention concentration to minimum Inhibitory concentration for Acinetobacter baumannii A910; type: functional
Acinetobacter baumannii [49] = assay: Ratio of mutant prevention concentration to minimum Inhibitory concentration for Acinetobacter baumannii A896; type: functional
Acinetobacter baumannii [50] = assay: Ratio of mutant prevention concentration to minimum Inhibitory concentration for Acinetobacter baumannii A908; type: functional
Acinetobacter baumannii [51] = assay: Ratio of mutant prevention concentration to minimum Inhibitory concentration for Acinetobacter baumannii A931; type: functional
Acinetobacter baumannii [52] = assay: Ratio of mutant prevention concentration to minimum Inhibitory concentration for Acinetobacter baumannii A897; type: functional
Acinetobacter baumannii [53] = assay: Ratio of mutant prevention concentration to minimum Inhibitory concentration for Acinetobacter baumannii A890; type: functional
Acinetobacter baumannii [54] = assay: Ratio of mutant prevention concentration to minimum Inhibitory concentration for Acinetobacter baumannii A891; type: functional
Pseudomonas aeruginosa [55] = assay: Ratio of mutant prevention concentration to minimum Inhibitory concentration for Pseudomonas aeruginosa P332; type: functional

C[C@@H](O)[C@H]1C(=O)N2C(C(=O)O)=C(SCCNC=N)C[C@H]12 [IMIPENEM ANHYDROUS] showed an MIC (Acinetobacter baumannii [1]) of 0.5 µg/mL (≈ 1.67 µM), an MIC (Acinetobacter baumannii [2]) of 0.5 µg/mL (≈ 1.67 µM) and an MIC (Acinetobacter baumannii [3]) of 0.5 µg/mL (≈ 1.67 µM). The MIC (Acinetobacter baumannii [4]) was 0.5 µg/mL (≈ 1.67 µM), the MIC (Acinetobacter baumannii [5]) was 2 µg/mL (≈ 6.68 µM) and the MIC (Acinetobacter baumannii [6]) was 0.5 µg/mL (≈ 1.67 µM). For the same compound, the MIC (Escherichia coli [7]) was 0.125 µg/mL (≈ 0.418 µM), the MIC (Escherichia coli [8]) was 0.5 µg/mL (≈ 1.67 µM) and the MIC (Escherichia coli [9]) was 0.25 µg/mL (≈ 0.835 µM). For the same compound, the MIC (Escherichia coli [10]) was 0.125 µg/mL (≈ 0.418 µM), the MIC (Escherichia coli [11]) was 0.25 µg/mL (≈ 0.835 µM) and the MIC (Escherichia coli [12]) was 0.125 µg/mL (≈ 0.418 µM). It also gave an MIC (Escherichia coli [13]) of 0.125 µg/mL (≈ 0.418 µM), an MIC (Klebsiella pneumoniae [14]) of 0.5 µg/mL (≈ 1.67 µM) and an MIC (Klebsiella pneumoniae [15]) of 0.5 µg/mL (≈ 1.67 µM). For the same compound, the MIC (Klebsiella pneumoniae [16]) was 0.5 µg/mL (≈ 1.67 µM), the MIC (Klebsiella pneumoniae [17]) was 2 µg/mL (≈ 6.68 µM) and the MIC (Klebsiella pneumoniae [18]) was 2 µg/mL (≈ 6.68 µM). For the same compound, the MIC (Klebsiella pneumoniae [19]) was 8 µg/mL (≈ 26.7 µM), the MIC (Klebsiella pneumoniae [20]) was 8 µg/mL (≈ 26.7 µM) and the MIC (Klebsiella pneumoniae [21]) was 4 µg/mL (≈ 13.4 µM). The MIC (Klebsiella pneumoniae [22]) was 4 µg/mL (≈ 13.4 µM), the MIC (Pseudomonas aeruginosa [23]) was 1 µg/mL (≈ 3.34 µM) and the MIC (Pseudomonas aeruginosa [24]) was 8 µg/mL (≈ 26.7 µM). The MIC (Pseudomonas aeruginosa [25]) was 2 µg/mL (≈ 6.68 µM), the MIC (Pseudomonas aeruginosa [26]) was 2 µg/mL (≈ 6.68 µM) and the MIC (Pseudomonas aeruginosa [27]) was 8 µg/mL (≈ 26.7 µM). For the same compound, the MIC (Pseudomonas aeruginosa [28]) was 0.5 µg/mL (≈ 1.67 µM), the MIC (Pseudomonas aeruginosa [29]) was 1 µg/mL (≈ 3.34 µM) and the MIC (Acinetobacter baumannii [30]) was 0.5 µg/mL (≈ 1.67 µM). It also gave an MIC (Acinetobacter baumannii [31]) of 1 µg/mL (≈ 3.34 µM) and an MIC (Acinetobacter baumannii [32]) of 0.25 µg/mL (≈ 0.835 µM).
For C[C@@H](O)[C@H]1C(=O)N2C(C(=O)O)=C(S[C@@H]3CN[C@H](CNS(N)(=O)=O)C3)[C@H](C)[C@H]12 [DORIPENEM], the Ratio (Pseudomonas aeruginosa [33]) was 4, the Ratio (Pseudomonas aeruginosa [34]) was >8 and the Ratio (Pseudomonas aeruginosa [35]) was 16. For the same compound, the Ratio (Pseudomonas aeruginosa [36]) was 8, the Ratio (Pseudomonas aeruginosa [37]) was 8 and the Ratio (Pseudomonas aeruginosa [38]) was 16. For the same compound, the Ratio (Pseudomonas aeruginosa [39]) was 2, the Ratio (Pseudomonas aeruginosa [40]) was 16 and the Ratio (Pseudomonas aeruginosa [41]) was 16. The Ratio (Pseudomonas aeruginosa [42]) was >16, the Ratio (Acinetobacter baumannii [43]) was 2 and the Ratio (Acinetobacter baumannii [44]) was 8. For the same compound, the Ratio (Acinetobacter baumannii [45]) was 4, the Ratio (Acinetobacter baumannii [46]) was 2 and the Ratio (Acinetobacter baumannii [47]) was 4. The Ratio (Acinetobacter baumannii [48]) was 2, the Ratio (Acinetobacter baumannii [49]) was 2 and the Ratio (Acinetobacter baumannii [50]) was 2. For the same compound, the Ratio (Acinetobacter baumannii [51]) was 2, the Ratio (Acinetobacter baumannii [52]) was 2 and the Ratio (Acinetobacter baumannii [53]) was 4. For the same compound, the Ratio (Acinetobacter baumannii [54]) was 4 and the Ratio (Pseudomonas aeruginosa [55]) was >16.
